Patent US20130101986A1, “In Vitro Method for obtaining Intrahepatic Fibroblasts Infected with Hepatitis C Virus” (priority 2009, published 2013)

Tested on: HCV-JFH1
Assay: Test of neutralization by interferon alfa of infection of human intrahepatic fibroblasts with HCV-JFH1
Assay type: cell-based, hepatitis C virus
Conditions: human intrahepatic fibroblasts preincubated 1 h at 37° C. with 500 U/ml of interferon alfa, infected at 0.1 FFU per cell; FIG. 8
Protocol: The intrahepatic fibroblasts were infected one day after being put in culture with HCV-JFH1 to a multiplicity of infection of 0.1 FFU per cell. After incubation overnight at 37° C., the cellular monolayers were washed three times with phosphate-buffered saline and then grown in standard conditions (Aoudjehane et al., Lab. Invest., 88: 973-985, 2008) in DMEM medium (Gibco) 10% FCS in the presence of penicillin and streptomycin (1%) as well as pyruvate (1%).
In order to determine whether the HCV genome is capable of replicating in intrahepatic fibroblasts inoculated with HCV-JFH1, the strands of positive RNA (genomic RNA) and the strands of negative RNA (antisense RNA) were quantified. For this purpose, the cells were taken on D3, D6 and D9 post-infection, washed in PBS buffer, then prepared using the “RNeasy minikit” extraction kit (QIAGEN S.A, Courtaboeuf, France) according to the supplier's recommendations, the cells having been lysed in 300 μl of buffer for 3.10^5 cells. The intracellular RNAs were quantified by quantitative RT-PCR specific to each strand as described by Carriere et al. (J. Med. Virol., 79: 155-160, 2007). […]

## interferon alfa
  amount of negative-strand HCV RNA: decrease
  amount of positive-strand HCV RNA: decrease
